# Test results as given in US20100021903A1, “Use of Genetic Determinants in Cardiovascular Risk Assessment” (priority 2006, published 2010).
# Legend:
# [1] = system: hypertensive patients with coronary artery disease; test: Nested case-control study within INVEST-GENES: primary outcome, logistic regression; settings: for SNP effect in arm (OR, 95% CI), Death / SNP effect in arm (OR, 95% CI), MI / SNP effect in arm (OR, 95% CI), Stroke: within treatment arm; for OR, effect of CACNB2 rs2357928 genotype on the primary outcome, by treatment: within CCB-treated or β-blocker-treated patients; for Total Number of Events: primary outcome; for OR, ALOX5 promoter polymorphism variant carriers, adverse cardiovascular outcomes, By Drug Therapy: within patients on the named drug
# Source text: The model contained the following baseline covariates used for primary INVEST analyses: age, sex, race/ethnicity, body mass index, smoking, INVEST treatment strategy, previous myocardial infarction, previous stroke, heart failure, diabetes, renal insufficiency, baseline systolic blood pressure, diuretic use, and ACE inhibitor use, plus codon 65 and 110 genotype, and the interaction term between genotype and strategy assignment.
# Relationships between single nucleotide polymorphisms (SNP) and haplotypes of arachidonate 5-lipoxygenase pathway genes and cardiovascular events were tested. […] A haplotype of ALOX5AP and SNPs was genotyped in both LTC4S and LTA4H, encoding 5-lipoxygenase activating protein, leukotriene C4 synthase and leukotriene A4 hydrolase respectively. The effects of these variants on the primary outcome using the X^2 test and logistic regression was analyzed.
# Pharmacogenetic relationships were tested between a polymorphism of the LTA4H gene which encodes leukotriene A4 hydrolase and cardiovascular events based on drug-treatment. […] The LTA4H SNP rs2660845 were genotyped and analyzed the effect and interaction of this variant with antihypertensive drug treatment on the primary outcome with the X^2 test and logistic regression.
# There was minimal linkage disequilibrium in CACNA1C and CACNB2. 8 SNPs in CACNA1C were examined in the case-control group.
# [2] = system: hypertensive patients with coronary artery disease; test: INVEST-GENES cohort: primary and secondary cardiovascular outcomes (death, nonfatal MI, nonfatal stroke), Cox regression; settings: for Incidence, All-cause Mortality / Incidence, Nonfatal MI / Incidence, Nonfatal Stroke / Incidence, Primary Outcome: crude incidence; for HR, KCNMB1 codon 110 (Leu110) variant allele on primary outcome, separately by treatment strategy: within patients randomized to the named drug; for HR (95% CI) Atenolol vs. Verapamil, Nonfatal MI / HR (95% CI) Atenolol vs. Verapamil, Nonfatal Stroke / HR (95% CI) Atenolol vs. Verapamil, Primary Outcome: reduced model
# hypertensive subjects = settings: Nguyen et al. 2000; cited from earlier work
# [3] = system: hypertensive patients with coronary artery disease; test: Blood pressure response to atenolol and number of antihypertensive drugs needed to reach BP control by ADRB1/ADRB2 genotype
# [4] = primary outcome, 0 GGC (ADRB2 46G-79G-523C) copies
# [5] = LTA4H rs2660845 G-carriers (n = 466)
# [6] = Patients on Atenolol (N = 2,830)
# [7] = Patients on Atenolol, number of patients
compound,measurement,setting,value
verapamil [verapamil SR],"SNP effect in arm (OR, 95% CI), Death",[1]; CACNA1C rs1051375,"1.28 (0.82, 2.0)"
same,"SNP effect in arm (OR, 95% CI), MI",[1]; CACNA1C rs1051375,0.97 (0.61-1.53)
same,"SNP effect in arm (OR, 95% CI), Stroke",[1]; CACNA1C rs1051375,1.83 (1.13-2.97)
same,"SNP effect in arm (OR, 95% CI), Death",[1]; CACNA1C rs10848683,"0.659 (0.365, 1.192)"
same,"SNP effect in arm (OR, 95% CI), MI",[1]; CACNA1C rs10848683,"0.733 (0.415, 1.294)"
same,"SNP effect in arm (OR, 95% CI), Stroke",[1]; CACNA1C rs10848683,"1.340 (0.767, 2.341)"
same,"OR, effect of CACNB2 rs2357928 genotype on the primary outcome, by treatment",[1],1.00
"COc1ccc(CCN(C)CCCC(C#N)(c2ccc(OC)c(OC)c2)C(C)C)cc1OC (stereo not drawn) [verapamil SR, verapamil]","Incidence, All-cause Mortality",[2]; 0 copies ADRB2 46G-79G-523C,7.3 per 1000 patient-years
same,"Incidence, Nonfatal MI",[2]; 0 copies ADRB2 46G-79G-523C,5.9 per 1000 patient-years
same,"Incidence, Nonfatal Stroke",[2]; 0 copies ADRB2 46G-79G-523C,5.1 per 1000 patient-years
same,"Incidence, Primary Outcome",[2]; 0 copies ADRB2 46G-79G-523C,18.3 per 1000 patient-years
same,"Incidence, All-cause Mortality",[2]; 1 copy ADRB2 46G-79G-523C,7.0 per 1000 patient-years
same,"Incidence, Nonfatal MI",[2]; 1 copy ADRB2 46G-79G-523C,2.9 per 1000 patient-years
same,"Incidence, Nonfatal Stroke",[2]; 1 copy ADRB2 46G-79G-523C,4.7 per 1000 patient-years
same,"Incidence, Primary Outcome",[2]; 1 copy ADRB2 46G-79G-523C,14.5 per 1000 patient-years
same,"Incidence, All-cause Mortality",[2]; 2 copies ADRB2 46G-79G-523C,4.2 per 1000 patient-years
same,"Incidence, Nonfatal MI",[2]; 2 copies ADRB2 46G-79G-523C,6.3 per 1000 patient-years
same,"Incidence, Nonfatal Stroke",[2]; 2 copies ADRB2 46G-79G-523C,6.3 per 1000 patient-years
same,"Incidence, Primary Outcome",[2]; 2 copies ADRB2 46G-79G-523C,17.0 per 1000 patient-years
same,Modification of the adverse effect of ADRB2 46G-79C-523C haplotype on primary outcome,[2]; Example 4,Neither atenolol nor verapamil SR modified the adverse effect of this haplotype
same,Systolic and diastolic blood pressure control,"[2]; patients treated with verapamil vs atenolol, FIG. 23",did not differ
same,Events/1000 Patient-Years,[2]; [4],18.0 Events/1000 Patient-Years
same,Events/1000 Patient-Years,"[2]; primary outcome, 1 GGC copy",14.4 Events/1000 Patient-Years
same,Events/1000 Patient-Years,"[2]; primary outcome, 2 GGC copies",17.1 Events/1000 Patient-Years
same,Events/1000 Patient-Years,"[2]; primary outcome, All Patients",16.4 Events/1000 Patient-Years
same,"HR, KCNMB1 codon 110 (Leu110) variant allele on primary outcome, separately by treatment strategy",[2],0.55
same,"HRadj, ADRB1 49S-389R haplotype on mortality, by treatment",[2]; within patients treated with the named drug,8.00
same,"systolic blood pressure response, average decrease",hypertensive subjects,12 mmHg
same,Total Number of Events,[1]; All subjects (n = 935),137
same,Total Number of Events,[1]; LTA4H AA (n = 469),68
same,Total Number of Events,[1]; [5],60
same,"OR, ALOX5 promoter polymorphism variant carriers, adverse cardiovascular outcomes, By Drug Therapy",[1],1.964
CC(C)NCC(O)COc1ccc(CC(N)=O)cc1 (stereo not drawn) [atenolol],"Incidence, Nonfatal MI",[2]; 0 copies ADRB2 46G-79G-523C,3.5 per 1000 patient-years
same,"Incidence, Nonfatal Stroke",[2]; 0 copies ADRB2 46G-79G-523C,4.2 per 1000 patient-years
same,"Incidence, Primary Outcome",[2]; 0 copies ADRB2 46G-79G-523C,10.8 per 1000 patient-years
same,"HR (95% CI) Atenolol vs. Verapamil, Nonfatal MI",[2]; 0 copies ADRB2 46G-79G-523C,0.60 (0.31-1.16)
same,"HR (95% CI) Atenolol vs. Verapamil, Nonfatal Stroke",[2]; 0 copies ADRB2 46G-79G-523C,0.85 (0.44-1.62)
same,"HR (95% CI) Atenolol vs. Verapamil, Primary Outcome",[2]; 0 copies ADRB2 46G-79G-523C,0.60 (0.41-0.87)
same,"Incidence, Nonfatal MI",[2]; 1 copy ADRB2 46G-79G-523C,5.8 per 1000 patient-years
same,"Incidence, Nonfatal Stroke",[2]; 1 copy ADRB2 46G-79G-523C,4.8 per 1000 patient-years
same,"HR (95% CI) Atenolol vs. Verapamil, Nonfatal MI",[2]; 1 copy ADRB2 46G-79G-523C,1.94 (0.89-4.20)
same,"HR (95% CI) Atenolol vs. Verapamil, Nonfatal Stroke",[2]; 1 copy ADRB2 46G-79G-523C,1.01 (0.50-2.05)
same,"HR (95% CI) Atenolol vs. Verapamil, Primary Outcome",[2]; 1 copy ADRB2 46G-79G-523C,1.03 (0.69-1.54)
same,"Incidence, Nonfatal MI",[2]; 2 copies ADRB2 46G-79G-523C,9.1 per 1000 patient-years
same,"Incidence, Nonfatal Stroke",[2]; 2 copies ADRB2 46G-79G-523C,5.1 per 1000 patient-years
same,"Incidence, Primary Outcome",[2]; 2 copies ADRB2 46G-79G-523C,22.3 per 1000 patient-years
same,"HR (95% CI) Atenolol vs. Verapamil, Nonfatal MI",[2]; 2 copies ADRB2 46G-79G-523C,1.53 (0.51-4.57)
same,"HR (95% CI) Atenolol vs. Verapamil, Nonfatal Stroke",[2]; 2 copies ADRB2 46G-79G-523C,0.79 (0.22-2.81)
same,"HR (95% CI) Atenolol vs. Verapamil, Primary Outcome",[2]; 2 copies ADRB2 46G-79G-523C,1.35 (0.68-2.67)
same,"HR, primary outcome, atenolol vs. verapamil SR",[2]; carriers (1 or 2 copies) of ADRB2 46G-79G-523C haplotype,1.10
same,"HR, primary outcome, atenolol vs. verapamil SR",[2]; non-carriers of ADRB2 46G-79G-523C haplotype,0.59
same,Events/1000 Patient-Years,[2]; [4],10.6 Events/1000 Patient-Years
same,Events/1000 Patient-Years,"[2]; primary outcome, 1 GGC copy",15.1 Events/1000 Patient-Years
same,Events/1000 Patient-Years,"[2]; primary outcome, 2 GGC copies",23.5 Events/1000 Patient-Years
same,Events/1000 Patient-Years,"[2]; primary outcome, All Patients",13.6 Events/1000 Patient-Years
same,"HR, KCNMB1 codon 110 (Leu110) variant allele on primary outcome, separately by treatment strategy",[2],0.84
same,covariate-adjusted systolic blood pressure reduction,"[3]; 1 copy GEC, 6 weeks",−7.9 mmHg
same,covariate-adjusted systolic blood pressure reduction,"[3]; 2 copies GEC, 6 weeks",−6.7 mmHg
same,patients who achieved sustained blood pressure control,[3]; 619 blood pressure response study patients,79.8%
same,mean systolic blood pressure after 6 weeks of treatment,"[3]; 619 patients whose BP change could be attributed to atenolol, mean±SD",139.7±18.3 mmHg
same,mean reduction in diastolic blood pressure,"[3]; 619 patients, 6 weeks",−6.2±10.3 mmHg
same,mean reduction in systolic blood pressure,"[3]; 619 patients, 6 weeks",−11.1±19.5 mmHg
same,mean diastolic blood pressure after 6 weeks of treatment,"[3]; 619 patients, mean±SD",80.4±9.9 mmHg
same,patients who achieved sustained blood pressure control,"[3]; 2,772 patients with complete genotype data, <140/90 mmHg",75.0%
same,"Covariate-Adjusted Decline in blood pressure, Diastolic",[3]; ADRB2 C523A AA,−7.4 mmHg
same,"Covariate-Adjusted Decline in blood pressure, Systolic",[3]; ADRB2 C523A AA,−15.2 mmHg
same,"Covariate-Adjusted Decline in blood pressure, Diastolic",[3]; ADRB2 C523A CA,−4.5 mmHg
same,"Covariate-Adjusted Decline in blood pressure, Systolic",[3]; ADRB2 C523A CA,−9.9 mmHg
same,"Covariate-Adjusted Decline in blood pressure, Diastolic",[3]; ADRB2 C523A CC,−5.1 mmHg
same,"Covariate-Adjusted Decline in blood pressure, Systolic",[3]; ADRB2 C523A CC,−8.2 mmHg
same,"Covariate-Adjusted Decline in blood pressure, Diastolic",[3]; ADRB2 Gln27Glu GlnGln,−5.9 mmHg
same,"Covariate-Adjusted Decline in blood pressure, Systolic",[3]; ADRB2 Gln27Glu GlnGln,−11.2 mmHg
same,"Covariate-Adjusted Decline in blood pressure, Diastolic",[3]; ADRB2 Gln27Glu GlnGlu,−4.8 mmHg
same,"Covariate-Adjusted Decline in blood pressure, Systolic",[3]; ADRB2 Gln27Glu GlnGlu,−8.8 mmHg
same,"Covariate-Adjusted Decline in blood pressure, Diastolic",[3]; ADRB2 Gln27Glu GluGlu,−3.4 mmHg
same,"Covariate-Adjusted Decline in blood pressure, Systolic",[3]; ADRB2 Gln27Glu GluGlu,−6.0 mmHg
same,"Covariate-Adjusted Decline in blood pressure, Diastolic",[3]; ADRB2 Gly16Arg ArgArg,−4.9 mmHg
same,"Covariate-Adjusted Decline in blood pressure, Systolic",[3]; ADRB2 Gly16Arg ArgArg,−8.0 mmHg
same,"Covariate-Adjusted Decline in blood pressure, Diastolic",[3]; ADRB2 Gly16Arg GlyArg,−5.9 mmHg
same,"Covariate-Adjusted Decline in blood pressure, Systolic",[3]; ADRB2 Gly16Arg GlyArg,−10.9 mmHg
same,"Covariate-Adjusted Decline in blood pressure, Diastolic",[3]; ADRB2 Gly16Arg GlyGly,−4.2 mmHg
same,"Covariate-Adjusted Decline in blood pressure, Systolic",[3]; ADRB2 Gly16Arg GlyGly,−9.0 mmHg
same,"DBP at 12 months, mean (SD)",[3]; [6],78.3 mmHg
same,"DBP at 24 months, mean (SD)",[3]; [6],77.7 mmHg
same,"SBP at 12 months, mean (SD)",[3]; [6],134.0 mmHg
same,"SBP at 24 months, mean (SD)",[3]; [6],132.3 mmHg
same,"Percent of visits with blood pressure in control, mean (SD)","[3]; Patients on Atenolol (N = 2,830), atenolol-based strategy, SBP < 140 and DBP < 90 mmHg",59.4
same,"BP in control at 12 months, No.",[3]; [7],1725
same,"BP in control at 24 months, No.",[3]; [7],1695
same,"BP in control at 12 months, (%)","[3]; Patients on Atenolol, percentage of patients at risk at 12 months",(66.0) %
same,"BP in control at 24 months, (%)","[3]; Patients on Atenolol, percentage of patients at risk at 24 months",(69.5) %
same,Association of ADRB1 haplotypes with blood pressure response to atenolol,[3]; p values >0.2,not significantly associated
same,"RR: BB vs CCB by genotype, Death",[1]; CACNA1C rs1051375,0.50
same,"RR: BB vs CCB by genotype, MI",[1]; CACNA1C rs1051375,0.39
same,"RR: BB vs CCB by genotype, Stroke",[1]; CACNA1C rs1051375,0.38
same,"SNP effect in arm (OR, 95% CI), Death",[1]; CACNA1C rs1051375,0.64 (0.37-1.12)
same,"SNP effect in arm (OR, 95% CI), MI",[1]; CACNA1C rs1051375,0.38 (0.22-0.68)
same,"SNP effect in arm (OR, 95% CI), Stroke",[1]; CACNA1C rs10848683,"0.706 (0.375, 1.329)"
same,Total Number of Events,[1]; All subjects (n = 935),113
same,Total Number of Events,[1]; LTA4H AA (n = 469),41
same,Total Number of Events,[1]; [5],63
same,"OR, effect of CACNB2 rs2357928 genotype on the primary outcome, by treatment",[1],0.50
same,"OR, ALOX5 promoter polymorphism variant carriers, adverse cardiovascular outcomes, By Drug Therapy",[1],1.577
"NS(=O)(=O)c1cc2c(cc1Cl)NCNS2(=O)=O [diuretics, hydrochlorothiazide]","HR, interaction between ADD1 carrier status and diuretics","[2]; adjusted Cox PH model, primary outcome",1.02
same,"Time to primary outcome event, users vs non-users of diuretics","[2]; regardless of ADD1 variant carrier status, Kaplan Meier",not different
